The source of these data is patent US20190029987A1, “DIMETHYL FUMARATE (DMF) FOR PREVENTION OR TREATMENT OF GOUT, ACNE, DIABETES, VITILIGO AND/OR PYODERMA GANGRENOSUM” (UNIVERSITAT ZURICH, priority 2016, published 2019).

One assay has as its system NLRP3 inflammasome. The assay can be described thus: UVB irradiation-induced inflammasome activation in HPKs (IL-1β ELISA, Western blot). Format: cell-based, human. Conditions: for relative efficiency/potency of inflammasome inhibition between compounds: UVB, same concentrations; for relative efficiency/potency of inflammasome inhibition between compounds / inflammasome activation (processed caspase-1, mature IL-1β and -18 in the supernatant): FIG. 2A, 8A-C; for inflammasome activation (processed caspase-1, mature IL-1β and -18 in the supernatant): different doses, UVB 30 min later, harvested after 5 h. The source says: To determine the effects of Nrf2 activating compounds on inflammasome activation, the inventors treated keratinocytes with different doses of SFN, tBHQ, DMF or 15d-PGJ2 and irradiated the cells with UVB.
SFN, DMF, 15d-PGJ2, tBHQ, zymosan, ATP, poly(dA:dT), cycloheximide, puromycin, and doxycycline were purchased from Sigma (Munich, Germany), nigericin from Enzo Life Sciences (New York, US-NY), MG132 from Calbiochem (Darmstadt, Germany), and blasticidin from Invivogen (Toulouse, France). Release of IL-1p was determined by ELISA according the instructions of the manufacturer (R&D Systems, Minneapolis, US-MN). MSU crystals were prepared by crystallisation of a supersaturated solution of uric acid under mildly basic conditions. Briefly, uric acid was added to a solution of NaOH, the solution was boiled until the uric acid was dissolved and passed through a filter. NaCl was added and crystallisation was performed at 4° C. Crystals were filtered, then dried using a speedvac, weighted and autoclaved.
(A) HPKs were treated with the indicated concentrations of the Nrf2 activating compound tBHQ irradiated with UVB 30 min later and harvested after 5 h. ELISA measurements were performed for quantification of IL-1β secretion and Western blots for analysis of expression and activation of the indicated proteins. Specific bands are marked with an asterisk. (B) THP-1 cells were differentiated with PMA (27 nM) for 3 d, primed with upLPS (100 ng/ml) overnight, and 1 h before inflammasome activation (5 μM nigericin, 150 μg/ml MSU) treated with SFN (10 μM), 15-PGJ2 (10 μM) or DMF (50 μM) (15-PG: 15-PGJ2). Cells and supernatants were harvested after 5 h and analysed for inflammasome activation by ELISA measurement of IL-1p and Western blots as indicated. (C) Freshly isolated PBMCs from human blood were primed overnight with upLPS (100 ng/ml) and treated with SFN (10 μM), tBHQ (10 μM), DMF (50 μM) or 15-PGJ2 (10 μM) 1 h before inflammasome activation by nigericin (5 μM). ELISA measurement for secretion of IL-1β as readout for inflammasome activation was performed after 5 h. (D) HPKs or (E) differentiated and primed THP-1 cells were pretreated with cycloheximide (CHX, 30 μg/ml) to block protein synthesis for 1 h before SFN (10 μM) was added to the cells and after an additional hour the inflammasome was activated by (D) irradiation with UVB or (E) treatment with nigericin (5 μM). Cells and supernatants were harvested after (D) 6 h or (E) 3.5 h and analysed for inflammasome activation by Western blot as indicated. (A-E) Representative experiments performed at least three times are shown. Statistics: (A-C) Error bars represent the mean±SD of a representative experiment performed in triplicates. One-way ANOVA was performed. **P≤0.01; ***P≤0.001.
FIG. 8: (A-C) HPKs were treated with the Nrf2 activating compounds (A) SFN, (B) DMF, and (C) 15d-PGJ2, irradiated with UVB 30 min later and harvested after 5 h. Analogous experiment as described in FIG. 2A for tBHQ. (D) THP-1 cells were differentiated with TPA for 3 d and primed with LPS overnight. Then, cells were treated with the solvent DMSO, SFN (10 μM) or 15-PGJ2 (10 μM). After 30 min the inflammasome was activated by nigericin treatment and cells and supernatants were harvested after 2.5 h. Western blots showing prolL-1β and mature IL-1p in the lysate and supernatant. 20% lysate and supernatant of a 12 well was used, respectively, in order to allow a comparison. IL-1β was quantified in the supernatant by ELISA and cytotoxicity by LDH release.
In general terms: An ELISA detects its analyte on a solid surface through an enzyme-linked reagent.

Assay [1] deals with Nrf2 target genes (GCLC, GCLM, NAD(P)H dehydrogenase, quinone 1). Description: Nrf2 target gene expression in HPKs (qRT-PCR). Format: cell-based, human. The following applies: 10 μM, RNA after 8 h, FIG. 6G. The protocol:
Human primary keratinocytes (HPKs) constitutively express pro-IL-1β and inflammasome proteins.
qRT-PCR was performed with the LightCycler 480 SYBR Green Master or the FastStart Universal SYBR Green Master (both Roche, Rotkreuz, Switzerland) using total cellular RNA. Specific primer pairs (Supplementary Table 2) were designed to generate an approximately 150 bp fragment flanking an intron-exon border of the corresponding gene. The LightCycler 480 96-well version (ROCHE, Rotkreuz, Switzerland) or the ViiA 7 Real-Time FOR System (Life Technologies, Carlsbad, US-CA) was used for reaction and detection according the instructions of the manufacturer.
FIG. 6: Bone marrow (BM) cells were isolated from Nrf2-deficient mice and wt litterfnates and differentiated into dendritic cells (DCs). (A, B) After priming with upLPS overnight, BMDCs were treated with the NLRP3 inflammasome activators nigericin (20 μM), zymosan (20 μg/ml), MSU (150 μg/ml), ATP (5 mM) or transfected with poly(dA:dT) (1 μg/ml) for activation of the AIM2 inflammasome. After 6 h, supernatants were analysed for secretion of IL-1β by (A) ELISA or (B) Western blot. Mock-treated but primed BMDCs were analysed for expression of inflammasome proteins and pro-IL-1β at the (C) mRNA level by qRT-PCR or at the (D) protein level by Western blot. (B, D) Duplicates from two individual mice per genotype are shown (biological replicates). (E-G) HPKs were treated with the Nrf2 activators SFN (10 μM), tBHQ (10 μM), DMF (50 μM) and 15d-PGJ2 (10 μM). After 1 h, the cells were harvested and analysed for expression of the indicated proteins using total cell lysates (E) or cytoplasmic and nuclear lysates (F). Western blots for the nuclear protein lamin NC and the cytoplasmic protein α-tubulin served as controls. Specific bands are marked with an asterisk. (G) Total RNA was isolated after 8 h and qRT-PCR was performed for quantification of expression of the Nrf2 target genes glutamate-cysteine ligase, catalytic subunit (GCLC), glutamate-cysteine ligase, modifier subunit (GCLM), and NAD(P)H dehydrogenase, quinone 1 (N001). (A-G) Representative experiments performed at least three times are shown. […] Mann-Whitney test was performed. […] Mann-Whitney test was performed. *P≤0.05
(In general: Quantitative PCR measures a nucleic acid by following its amplification.)

For `CCCCCC=CC=C1C(=O)C=CC1CC=CCCCC(=O)O` [15d-PGJ2, 15-deoxy-D-prostaglandin J2], in the assay with NLRP3 inflammasome, the “relative efficiency/potency of inflammasome inhibition between compounds” value was “much more efficient than tBHQ and DMF”; the “inflammasome activation (processed caspase-1, mature IL-1β and -18 in the supernatant)” value is given as “inhibited inflammasome activation in a dose-dependent manner”. In assay [1], the “expression of classical Nrf2 target genes” value is on record as “induction of classical Nrf2 target genes”.
On to `C[S+]([O-])CCCCN=C=S` (stereo not shown) [SFN, sulforaphane], for which the “inflammasome inhibition by SFN with protein synthesis blocked by cycloheximide” value with NLRP3 inflammasome (CHX 30 μg/ml 1 h before SFN 10 μM, UVB 1 h later, 6 h, FIG. 2D) is reported as “did not prevent inflammasome inhibition”. In the assay on NLRP3 inflammasome, the “relative efficiency/potency of inflammasome inhibition between compounds” value was “much more efficient than tBHQ and DMF”; the “inflammasome activation (processed caspase-1, mature IL-1β and -18 in the supernatant)” value is “inhibited inflammasome activation in a dose-dependent manner”. For the same compound, the “expression of classical Nrf2 target genes” value in assay [1] is reported as “induction of classical Nrf2 target genes”.
